Data published in patent US20210317134A1, “UBIQUITIN-SPECIFIC-PROCESSING PROTEASE 7 (USP7) MODULATORS AND USES THEREOF” (RAPT THERAPEUTICS, INC., priority 2019, published 2021).

target: USP7 (Homo sapiens, UniProt Q93009); experiment: USP7 inhibitory potency (Table 1); assay type: biochemical
Sequence (Q93009 whole entry): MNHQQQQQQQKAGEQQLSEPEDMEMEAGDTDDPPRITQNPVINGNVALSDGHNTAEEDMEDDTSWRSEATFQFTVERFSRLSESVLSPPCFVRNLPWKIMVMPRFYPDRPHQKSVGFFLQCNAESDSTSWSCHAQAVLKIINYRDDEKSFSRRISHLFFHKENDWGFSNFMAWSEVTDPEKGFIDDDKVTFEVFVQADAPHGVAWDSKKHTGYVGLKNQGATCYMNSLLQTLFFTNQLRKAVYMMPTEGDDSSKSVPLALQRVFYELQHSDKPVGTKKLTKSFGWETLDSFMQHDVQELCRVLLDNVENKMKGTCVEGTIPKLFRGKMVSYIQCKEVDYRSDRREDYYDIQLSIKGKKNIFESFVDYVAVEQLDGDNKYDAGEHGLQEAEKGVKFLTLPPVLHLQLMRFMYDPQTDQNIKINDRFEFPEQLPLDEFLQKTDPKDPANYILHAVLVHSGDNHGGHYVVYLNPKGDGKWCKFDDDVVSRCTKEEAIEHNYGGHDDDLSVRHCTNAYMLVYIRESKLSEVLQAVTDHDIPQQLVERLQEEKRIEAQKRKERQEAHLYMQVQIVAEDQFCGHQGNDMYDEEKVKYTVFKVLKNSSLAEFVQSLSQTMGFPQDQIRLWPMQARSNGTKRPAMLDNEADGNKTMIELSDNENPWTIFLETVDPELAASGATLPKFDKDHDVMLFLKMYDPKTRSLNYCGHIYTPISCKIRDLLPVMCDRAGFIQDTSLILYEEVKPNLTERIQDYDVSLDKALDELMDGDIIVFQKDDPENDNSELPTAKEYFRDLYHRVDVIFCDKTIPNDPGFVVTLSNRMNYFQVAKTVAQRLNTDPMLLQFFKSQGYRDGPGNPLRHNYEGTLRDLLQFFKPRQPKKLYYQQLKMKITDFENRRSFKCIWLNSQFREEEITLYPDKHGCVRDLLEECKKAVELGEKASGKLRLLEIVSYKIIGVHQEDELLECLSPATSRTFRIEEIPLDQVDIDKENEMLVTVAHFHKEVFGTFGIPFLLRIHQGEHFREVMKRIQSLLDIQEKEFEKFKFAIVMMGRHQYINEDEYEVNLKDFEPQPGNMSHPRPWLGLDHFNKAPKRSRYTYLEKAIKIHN

SMILES	IC50 [nM]
O=C(C1Cc2cc(Cl)c(F)c(-c3ccnc4[nH]ccc34)c2O1)N1CCNCC1 (stereo not shown)	10000 to 30000
Cc1cnccc1-c1cc(Cl)cc2c1OC(C(=O)N1CCNCC1)C2 (stereo not shown)	10000 to 30000
N#Cc1cc2c(c(-c3ccnc4cc(CO)sc34)c1)OC(C(=O)N1CCNCC1)C2 (stereo in doubt) [(R)-7-(2-(hydroxymethyl)thieno[3,2-b]pyridin-7-yl)-2-(piperazine-1-carbonyl)-2,3-dihydrobenzofuran-5-carbonitrile]	1000 to 10000
O=C(C1Cc2cc(Cl)cc(-c3ccnc4[nH]ccc34)c2O1)N1CCC(N2CCCCC2)CC1 (stereo not shown) [1,4′-bipiperidin-1′-yl(5-chloro-7-(1H-pyrrolo[2,3-b]pyridin-4-yl)-2,3-dihydrobenzofuran-2-yl)methanone]	1000 to 10000
CCC(O)c1cc2ncnc(-c3cc(Cl)cc4c3O[C@@H](c3c5c(nn3C)CCC(N(C)C)C5)C4)c2s1 (stereo partly drawn) [1-(4-((2R)-5-chloro-2-(5-(dimethylamino)-2-methyl-4,5,6,7-tetrahydro-2H-indazol-3-yl)-2,3-dihydrobenzofuran-7-yl)thieno[3,2-d]pyrimidin-6-yl)propan-1-ol]	1000 to 10000
CCC(O)c1cc2ncnc(-c3cc(Cl)cc4c3O[C@@H](c3c5c(nn3C)CCNC5)C4)c2s1 (stereo partly drawn) [1-(4-((R)-5-chloro-2-(2-methyl-4,5,6,7-tetrahydro-2H-pyrazolo[4,3-c]pyridin-3-yl)-2,3-dihydrobenzofuran-7-yl)thieno[3,2-d]pyrimidin-6-yl)propan-1-ol]	< 1000
CC(O)c1ccc2c(-c3cc(Cl)cc4c3O[C@@H](c3onc5c3CNCC5)C4)ccnc2c1 (stereo partly drawn) [1-(4-((R)-5-chloro-2-(4,5,6,7-tetrahydroisoxazolo[4,3-c]pyridin-3-yl)-2,3-dihydrobenzofuran-7-yl)quinolin-7-yl)ethan-1-ol]	< 1000
CCC(O)c1ccc2c(-c3cc(Cl)cc4c3O[C@@H](c3onc5c3CNCC5)C4)ccnc2c1 (stereo partly drawn) [1-(4-((R)-5-chloro-2-(4,5,6,7-tetrahydroisoxazolo[4,3-c]pyridin-3-yl)-2,3-dihydrobenzofuran-7-yl)quinolin-7-yl)propan-1-ol]	1000 to 10000
CCC(O)c1cc2nccc(-c3cc(Cl)cc4c3OC(c3onc5c3CNCC5)C4)n2n1 (stereo not shown) [1-(7-(5-chloro-2-(4,5,6,7-tetrahydroisoxazolo[4,3-c]pyridin-3-yl)-2,3-dihydrobenzofuran-7-yl)pyrazolo[1,5-a]pyrimidin-2-yl)propan-1-ol]	1000 to 10000
CCC(O)c1cc2nccc(-c3cc(Cl)cc4c3OC(CN3CCNCC3)C4)c2s1 (stereo not shown) [1-(7-(5-chloro-2-(piperazin-1-ylmethyl)-2,3-dihydrobenzofuran-7-yl)thieno[3,2-b]pyridin-2-yl)propan-1-ol]	10000 to 30000
CCC(O)c1cc2nccc(-c3cc(Cl)cc4c3O[C@@H](c3nn(C)c5c3CNCC5)C4)c2s1 (stereo partly drawn) [1-(7-((R)-5-chloro-2-(1-methyl-4,5,6,7-tetrahydro-1H-pyrazolo[4,3-c]pyridin-3-yl)-2,3-dihydrobenzofuran-7-yl)thieno[3,2-b]pyridin-2-yl)propan-1-ol]	< 1000
CCC(O)c1cc2nccc(-c3cc(Cl)cc4c3O[C@@H](c3[nH]nc5c3CNCC5)C4)c2s1 (stereo partly drawn) [1-(7-((R)-5-chloro-2-(4,5,6,7-tetrahydro-2H-pyrazolo[4,3-c]pyridin-3-yl)-2,3-dihydrobenzofuran-7-yl)thieno[3,2-b]pyridin-2-yl)propan-1-ol]	< 1000
CC(C)CC(O)c1cc2nccc(-c3cc(Cl)cc4c3O[C@@H](c3onc5c3CNCC5)C4)c2s1 (stereo partly drawn) [1-(7-((R)-5-chloro-2-(4,5,6,7-tetrahydroisoxazolo[4,3-c]pyridin-3-yl)-2,3-dihydrobenzofuran-7-yl)thieno[3,2-b]pyridin-2-yl)-3-methylbutan-1-ol]	< 1000
CCCC(O)c1cc2nccc(-c3cc(Cl)cc4c3O[C@@H](c3onc5c3CNCC5)C4)c2s1 (stereo partly drawn) [1-(7-((R)-5-chloro-2-(4,5,6,7-tetrahydroisoxazolo[4,3-c]pyridin-3-yl)-2,3-dihydrobenzofuran-7-yl)thieno[3,2-b]pyridin-2-yl)butan-1-ol]	< 1000
CCC(N)c1cc2nccc(-c3cc(Cl)cc4c3O[C@@H](c3onc5c3CNCC5)C4)c2s1 (stereo partly drawn) [1-(7-((R)-5-chloro-2-(4,5,6,7-tetrahydroisoxazolo[4,3-c]pyridin-3-yl)-2,3-dihydrobenzofuran-7-yl)thieno[3,2-b]pyridin-2-yl)propan-1-amine]	1000 to 10000
CCC(O)c1cc2nccc(-c3cc(Cl)cc4c3O[C@@H](c3ocnc3CN(C)C)C4)c2s1 (stereo partly drawn) [1-(7-((R)-5-chloro-2-(4-((dimethylamino)methyl)oxazol-5-yl)-2,3-dihydrobenzofuran-7-yl)thieno[3,2-b]pyridin-2-yl)propan-1-ol]	< 1000
CCC(O)c1cc2nccc(-c3cc(Cl)cc4c3O[C@@H](c3ocnc3CNC)C4)c2s1 (stereo partly drawn) [1-(7-((R)-5-chloro-2-(4-((methylamino)methyl)oxazol-5-yl)-2,3-dihydrobenzofuran-7-yl)thieno[3,2-b]pyridin-2-yl)propan-1-ol]	< 1000
CCC(O)c1cc2nccc(-c3cc(Cl)cc4c3O[C@@H](c3ocnc3CN3CCOCC3)C4)c2s1 (stereo partly drawn) [1-(7-((R)-5-chloro-2-(4-(morpholinomethyl)oxazol-5-yl)-2,3-dihydrobenzofuran-7-yl)thieno[3,2-b]pyridin-2-yl)propan-1-ol]	1000 to 10000
CCC(O)c1cc2nccc(-c3cc(Cl)cc4c3O[C@@H](c3ocnc3CN3CCCC3)C4)c2s1 (stereo partly drawn) [1-(7-((R)-5-chloro-2-(4-(pyrrolidin-1-ylmethyl)oxazol-5-yl)-2,3-dihydrobenzofuran-7-yl)thieno[3,2-b]pyridin-2-yl)propan-1-ol]	< 1000
CCC(O)c1cc2nccc(-c3cc(Cl)cc4c3O[C@@H](c3onc5c3CNCC5)CC4)c2s1 (stereo partly drawn) [1-(7-((R)-6-chloro-2-(4,5,6,7-tetrahydroisoxazolo[4,3-c]pyridin-3-yl)chroman-8-yl)thieno[3,2-b]pyridin-2-yl)propan-1-ol]	< 1000
O=C1CCC(=O)N1Cc1cc2nccc(-c3cc(Cl)cc4c3O[C@@H](c3onc5c3CC(N3CCC3)CC5)C4)c2s1 (stereo partly drawn) [1-((7-((2R)-2-(5-(azetidin-1-yl)-4,5,6,7-tetrahydrobenzo[c]isoxazol-3-yl)-5-chloro-2,3-dihydrobenzofuran-7-yl)thieno[3,2-b]pyridin-2-yl)methyl)pyrrolidine-2,5-dione]	< 1000
CC1CC(=O)N(Cc2cc3nccc(-c4cc(Cl)cc5c4O[C@@H](C(=O)N4CCNCC4)C5)c3s2)C1=O (stereo partly drawn) [1-((7-((R)-5-chloro-2-(piperazine-1-carbonyl)-2,3-dihydrobenzofuran-7-yl)thieno[3,2-b]pyridin-2-yl)methyl)-3-methylpyrrolidine-2,5-dione]	< 1000
CC1CC(=O)N(Cc2cc3nccc(-c4cc(Cl)cc5c4O[C@@H](C(=O)N4CCNCC4)C5)c3s2)C1 (stereo partly drawn) [1-((7-((R)-5-chloro-2-(piperazine-1-carbonyl)-2,3-dihydrobenzofuran-7-yl)thieno[3,2-b]pyridin-2-yl)methyl)-4-methylpyrrolidin-2-one]	< 1000
CC1CCC(=O)N1Cc1cc2nccc(-c3cc(Cl)cc4c3O[C@@H](C(=O)N3CCNCC3)C4)c2s1 (stereo partly drawn) [1-((7-((R)-5-chloro-2-(piperazine-1-carbonyl)-2,3-dihydrobenzofuran-7-yl)thieno[3,2-b]pyridin-2-yl)methyl)-5-methylpyrrolidin-2-one]	< 1000

Now from value to molecule:

IC50 [nM]	SMILES
1000 to 10000	C[C@H](O)Cc1cc2c(-c3cc(Cl)cc4c3OC(C(=O)N3CCNCC3)C4)ccnc2[nH]1 (stereo partly shown)
1000 to 10000	CCC(O)c1cc2ncnc(-c3cc(Cl)cc4c3O[C@@H](c3onc5c3CNCC5)C4)c2o1 (stereo partly drawn) [1-(4-((R)-5-chloro-2-(4,5,6,7-tetrahydroisoxazolo[4,3-c]pyridin-3-yl)-2,3-dihydrobenzofuran-7-yl)furo[3,2-d]pyrimidin-6-yl)propan-1-ol]
10000 to 30000	CCC(O)c1cc2ncnc(-c3cc(Cl)cc4c3O[C@@H](c3ocnc3CNCC(F)(F)F)C4)c2s1 (stereo partly drawn) [1-(4-((R)-5-chloro-2-(4-(((2,2,2-trifluoroethyl)amino)methyl)oxazol-5-yl)-2,3-dihydrobenzofuran-7-yl)thieno[3,2-d]pyrimidin-6-yl)propan-1-ol]
< 1000	CCC(O)c1cc2nccc(-c3cc(Cl)cc4c3OC(c3onc5c3CN(C(C)C)CC5)C4)c2s1 (stereo not shown) [1-(7-(5-chloro-2-(5-isopropyl-4,5,6,7-tetrahydroisoxazolo[4,3-c]pyridin-3-yl)-2,3-dihydrobenzofuran-7-yl)thieno[3,2-b]pyridin-2-yl)propan-1-ol]
< 1000	CCC(O)c1cc2nccc(-c3cc(Cl)cc4c3O[C@@H](c3c5c(nn3C)CCNC5)C4)c2s1 (stereo partly drawn) [1-(7-((R)-5-chloro-2-(2-methyl-4,5,6,7-tetrahydro-2H-pyrazolo[4,3-c]pyridin-3-yl)-2,3-dihydrobenzofuran-7-yl)thieno[3,2-b]pyridin-2-yl)propan-1-ol]
< 1000	CCC(O)c1cc2nccc(-c3cc(Cl)cc4c3O[C@@H](c3ocnc3CNCCO)C4)c2s1 (stereo partly drawn) [1-(7-((R)-5-chloro-2-(4-(((2-hydroxyethyl)amino)methyl)oxazol-5-yl)-2,3-dihydrobenzofuran-7-yl)thieno[3,2-b]pyridin-2-yl)propan-1-ol]
< 1000	CCC(O)c1cc2nccc(-c3cc(Cl)cc4c3O[C@@H](c3ocnc3CN3CCNCC3)C4)c2s1 (stereo partly drawn) [1-(7-((R)-5-chloro-2-(4-(piperazin-1-ylmethyl)oxazol-5-yl)-2,3-dihydrobenzofuran-7-yl)thieno[3,2-b]pyridin-2-yl)propan-1-ol]
< 1000	CCC(O)c1cc2nccc(-c3cc(Cl)cc4c3O[C@@H](c3onc5c3CN(CC)CC5)C4)c2s1 (stereo partly drawn) [1-(7-((R)-5-chloro-2-(5-ethyl-4,5,6,7-tetrahydroisoxazolo[4,3-c]pyridin-3-yl)-2,3-dihydrobenzofuran-7-yl)thieno[3,2-b]pyridin-2-yl)propan-1-ol]
< 1000	O=C([C@H]1Cc2cc(Cl)cc(-c3ccnc4c3CC(CN3C(=O)CCC3=O)C4)c2O1)N1CCNCC1 (stereo partly drawn) [1-((4-((R)-5-chloro-2-(piperazine-1-carbonyl)-2,3-dihydrobenzofuran-7-yl)-6,7-dihydro-5H-cyclopenta[b]pyridin-6-yl)methyl)pyrrolidine-2,5-dione]
< 1000	C[C@H](c1cc2nccc(-c3cc(Cl)cc4c3O[C@@H](C(=O)N3CCNCC3)C4)c2s1)N1C(=O)CCC1=O [1-((R)-1-(7-((R)-5-chloro-2-(piperazine-1-carbonyl)-2,3-dihydrobenzofuran-7-yl)thieno[3,2-b]pyridin-2-yl)ethyl)pyrrolidine-2,5-dione]
